Source: ChEMBL document CHEMBL3421590, “Pancreatic lipase inhibitory constituents from Morus alba leaves and optimization for extraction conditions” (Bioorg Med Chem Lett, 2015)

Tests used:
[1] = target: T1, Pancreatic triacylglycerol lipase (Sus scrofa) (UniProt P00591); experiment: Inhibition of porcine pancreatic lipase using p-nitrophenylbutyrate as substrate assessed as formation of p-nitrophenol at 100 uM preincubated for 15 mins followed by substrate addition measured after 15 mins relative to control
T1 sequence (whole entry): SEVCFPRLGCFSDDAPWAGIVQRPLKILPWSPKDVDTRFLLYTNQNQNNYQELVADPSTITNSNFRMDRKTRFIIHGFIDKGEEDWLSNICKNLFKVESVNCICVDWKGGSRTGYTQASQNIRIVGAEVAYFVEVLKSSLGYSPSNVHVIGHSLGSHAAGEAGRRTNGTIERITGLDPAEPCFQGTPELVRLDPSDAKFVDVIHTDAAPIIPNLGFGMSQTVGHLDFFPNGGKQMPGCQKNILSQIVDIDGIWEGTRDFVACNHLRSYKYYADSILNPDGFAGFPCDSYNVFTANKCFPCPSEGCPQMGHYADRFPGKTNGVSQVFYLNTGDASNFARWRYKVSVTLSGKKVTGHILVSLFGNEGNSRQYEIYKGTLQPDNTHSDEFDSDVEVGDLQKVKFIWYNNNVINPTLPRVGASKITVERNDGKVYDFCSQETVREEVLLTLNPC

[2] = target: T2, Pancreatic triacylglycerol lipase (Sus scrofa, UniProt P00591); experiment: Inhibition of porcine pancreatic lipase using p-nitrophenylbutyrate as substrate assessed as formation of p-nitrophenol preincubated for 15 mins followed by substrate addition measured after 15 mins
T2 sequence (P00591 whole entry): T1 sequence (whole entry)

Oc1cc(O)cc(-c2cc3ccc(O)c(O)c3o2)c1
inhibition [1]: 55.9% | IC50 [2]: 63 µM

COc1ccc(-c2oc3cc(O)cc(O)c3c(=O)c2OC2O[C@H](CO)[C@@H](O)[C@H](O)[C@H]2O)cc1 (some centres undefined)
inhibition [1]: 12.1% | IC50 [2]: > 70 µM

CC(C)=CCc1c(O)ccc(C(=O)/C=C/c2ccc(O)cc2O)c1O [MORACHALCONE A]
inhibition [1]: 73% | IC50 [2]: 6.2 µM

CC(C)=CCc1cc2cc(-c3cc(O)cc(O)c3)oc2cc1O [MORACIN N]
inhibition [1]: 61.7% | IC50 [2]: 29.7 µM

O=c1cc(-c2ccc(O)cc2O)oc2cc(O)cc(O)c12 [NORARTOCARPETIN]
inhibition [1]: 45.3% | IC50 [2]: > 70 µM

O=c1c(O)c(-c2ccc(O)c(O)c2)oc2cc(O)cc(O)c12
inhibition [1]: 36.3%

CC(C)=CCc1c(-c2ccc(O)cc2O)oc2c(CC=C(C)C)c(O)cc(O)c2c1=O [KUWANON C]
inhibition [1]: 72.5% | IC50 [2]: 18.6 µM

CC(C)=CCC/C(C)=C/Cc1c(O)cc(O)cc1-c1cc2ccc(O)cc2o1 [ALBAFURAN A]
inhibition [1]: 45.4% | IC50 [2]: > 70 µM

O=c1c(O[C@@H]2O[C@H](CO)[C@@H](O)[C@H](O)[C@H]2O)c(-c2ccc(O)cc2)oc2cc(O)cc(O)c12 [ASTRAGALIN]
inhibition [1]: 10.8% | IC50 [2]: > 70 µM

COc1cc(-c2oc3cc(O)cc(O)c3c(=O)c2O)ccc1O [ISORHAMNETIN]
inhibition [1]: 32.4% | IC50 [2]: > 70 µM

Oc1cc(O)cc(-c2cc3cc4ccoc4cc3o2)c1
inhibition [1]: 31.7% | IC50 [2]: > 70 µM

O=c1c(O[C@@H]2O[C@H](CO)[C@@H](O)[C@H](O)[C@H]2O)c(-c2ccc(O)c(O)c2)oc2cc(O)cc(O)c12 [ISOQUERCETIN]
inhibition [1]: 12.6% | IC50 [2]: > 70 µM

Oc1cc(O)cc(-c2cc3ccc(O)cc3o2)c1 [MORACIN M]
inhibition [1]: 21.5% | IC50 [2]: > 70 µM

CC(C)=CCc1c(O)cc(-c2cc3ccc(O)cc3o2)cc1O [MORACIN C]
inhibition [1]: 64.8% | IC50 [2]: 32 µM

CC1(C)C=Cc2cc3cc(-c4cc(O)cc(O)c4)oc3cc2O1
inhibition [1]: 67.9% | IC50 [2]: 29.2 µM

Oc1cc(O)cc(/C=C/c2ccc(O)cc2O)c1 [OXYRESVERATROL]
inhibition [1]: 28.8% | IC50 [2]: > 70 µM

Oc1cc(O)cc(-c2cc3cc(O)c(O)cc3o2)c1
inhibition [1]: 59.1% | IC50 [2]: 64.8 µM

O=C1CC(c2ccc(O)cc2O)Oc2cc(O)cc(O)c21 (centres undefined) [STEPPOGENIN]
inhibition [1]: 4.4% | IC50 [2]: > 70 µM

O=c1c(O)c(-c2ccc(O)cc2)oc2cc(O)cc(O)c12 [KAEMPFEROL]
inhibition [1]: 50.3% | IC50 [2]: > 70 µM

O=C1CC(c2ccc(O)cc2O)Oc2cc(O)ccc21 (centres undefined)
inhibition [1]: 69.6% | IC50 [2]: 56.4 µM
